{"source": "patent US20170354148A1", "about": "“SAFENED HERBICIDAL COMPOSITIONS CONTAINING HALAUXIFEN AND METHODS OF USE THEREOF IN BRASSICA SPECIES” (Dow AgroSciences LLC, priority 2016, published 2017)", "key": {"[1]": {"system": "kale/Chinese kale (Brassica alboglabra, BRSAG)", "assay": "Example 5 greenhouse trials, postemergence visual injury", "conditions": "BRSAG, 20-22 d"}, "[2]": {"system": "Nexera™ canola (Brassica napus, BRSNN-NEX)", "assay": "Example 5 greenhouse trials, postemergence visual injury", "conditions": "BRSNN-NEX, 20-22 d"}, "[3]": {"system": "Roundup Ready® canola (Brassica napus, RR-BRSNN)", "assay": "Example 5 greenhouse trials, postemergence visual injury", "conditions": "RR-BRSNN, 20-22 d"}, "[4]": {"system": "Spring Argentine canola (Brassica napus, BRSNS)", "assay": "Example 3 field trials (Canada), postemergence crop safety, visual phytotoxicity"}, "[5]": {"conditions": "BRSNS, trial 1, 17DAA1, 150 g ae/ha"}, "[6]": {"conditions": "BRSNS, trial 1, 32DAA1, 150 g ae/ha"}}, "note": "Values joined by “and” are separate entries in the source; they are usually repeats but may differ in a detail not shown here. Identical values can stand only once.", "data": [{"smiles": "O=C(O)c1nc(Cl)ccc1Cl", "note": "[Clopyralid-olamine, 2-hydroxyethanaminium 3,6-dichloro-2-pyridinecarboxylate]", "values": [{"measurement": "% Visual Injury Obs", "setting": "[1]; 50 g ai/ha alone", "value": 0, "unit": "%"}, {"measurement": "% Visual Injury Obs", "setting": "[1]; 100 g ai/ha alone", "value": 0, "unit": "%"}, {"measurement": "% Visual Injury Obs", "setting": "[1]; 200 g ai/ha alone", "value": 0, "unit": "%"}, {"measurement": "% Visual Injury Obs", "setting": "[2]; 50 g ai/ha alone", "value": 0, "unit": "%"}, {"measurement": "% Visual Injury Obs", "setting": "[2]; 100 g ai/ha alone", "value": 0, "unit": "%"}, {"measurement": "% Visual Injury Obs", "setting": "[2]; 200 g ai/ha alone", "value": 0, "unit": "%"}, {"measurement": "% Visual Injury Obs", "setting": "[3]; 50 g ai/ha alone", "value": 0, "unit": "%"}, {"measurement": "% Visual Injury Obs", "setting": "[3]; 100 g ai/ha alone", "value": 0, "unit": "%"}, {"measurement": "% Visual Injury Obs", "setting": "[3]; 200 g ai/ha alone", "value": 0, "unit": "%"}, {"measurement": "Mean % Visual Injury", "setting": "[4]; BRSNS, 7DAAA, 150 g ae/ha (Tables 10, 11)", "value": 0.0, "unit": "%"}, {"measurement": "Mean % Visual Injury", "setting": "[4]; BRSNS, 15DAAA, 150 g ae/ha (Tables 10, 11)", "value": 1.5, "unit": "%"}, {"measurement": "Mean % Visual Injury", "setting": "[4]; BRSNS, 27DAAA, 150 g ae/ha (Tables 10, 11)", "value": 1.0, "unit": "%"}, {"measurement": "Mean % Visual Injury", "setting": "[4]; BRSNS, 57DAAA, 150 g ae/ha (Tables 10, 11)", "value": 2.0, "unit": "%"}, {"measurement": "Mean % Visual Deformation", "setting": "[4]; BRSNS, 60DAA1, 150 g ae/ha", "value": 0.0, "unit": "%"}, {"measurement": "Mean % Visual Injury", "setting": "[4]; BRSNS, trial 1, 7DAA1, 150 g ae/ha", "value": 1.0, "unit": "%"}, {"measurement": "Mean % Visual Epinasty", "setting": "[4]; [5]", "value": 1.0, "unit": "%"}, {"measurement": "Mean % Visual Injury", "setting": "[4]; [5]", "value": 1.3, "unit": "%"}, {"measurement": "Mean % Visual Epinasty", "setting": "[4]; [6]", "value": 3.5, "unit": "%"}, {"measurement": "Mean % Visual Injury", "setting": "[4]; [6]", "value": 7.0, "unit": "%"}, {"measurement": "Mean % Visual Injury", "setting": "[4]; BRSNS, trial 1, 49DAA1, 150 g ae/ha", "value": 2.8, "unit": "%"}, {"measurement": "Mean % Visual Injury", "setting": "[4]; BRSNS, trial 2, 8DAA1, 150 g ae/ha", "value": "1.8% and 2.0% and 1.3% and 1.4% and 1.5% and 1.0%"}, {"measurement": "Mean % Visual Injury", "setting": "[4]; BRSNS, trial 2, 17DAA1, 150 g ae/ha", "value": 2.5, "unit": "%"}, {"measurement": "Mean % Visual Epinasty", "setting": "[4]; BRSNS, trial 2, 35DAA1, 150 g ae/ha", "value": "3.5% and 2.0%"}, {"measurement": "Mean % Visual Injury", "setting": "[4]; BRSNS, trial 2, 48DAA1, 150 g ae/ha", "value": "2.0% and 0.8%"}, {"measurement": "Mean % Visual Epinasty", "setting": "[4]; BRSNS, trial 3, 6DAA1, 150 g ae/ha", "value": 0.0, "unit": "%"}, {"measurement": "Mean % Visual Epinasty", "setting": "[4]; BRSNS, trial 3, 23DAA1, 150 g ae/ha", "value": 0.0, "unit": "%"}, {"measurement": "Mean % Visual Injury", "setting": "[4]; BRSNS, trial 3, 33DAA1, 150 g ae/ha", "value": "0.5% and 1.0%"}, {"measurement": "Mean % Visual Injury", "setting": "[4]; BRSNS, trial 3, 69DAA1, 150 g ae/ha", "value": 0.0, "unit": "%"}, {"measurement": "Mean % Visual Injury", "setting": "[4]; BRSNS, trial 4, 8DAA1, 150 g ae/ha", "value": 1.5, "unit": "%"}, {"measurement": "Mean % Visual Injury", "setting": "[4]; BRSNS, trial 4, 15DAA1, 150 g ae/ha", "value": 1.5, "unit": "%"}, {"measurement": "Mean % Visual Epinasty", "setting": "[4]; BRSNS, trial 4, 17DAA1, 200 g ae/ha", "value": 0.0, "unit": "%"}, {"measurement": "Mean % Visual Injury", "setting": "[4]; BRSNS, trial 4, 41DAA1, 150 g ae/ha", "value": 0.8, "unit": "%"}, {"measurement": "Mean % Visual Injury", "setting": "[4]; BRSNS, trial 4, 82DAA1, 150 g ae/ha", "value": 0.0, "unit": "%"}, {"measurement": "Mean % Visual Injury", "setting": "[4]; BRSNS, trial 5, 7DAA1, 150 g ae/ha", "value": "0.5% and 0.0% and 1.3% and 1.5%"}, {"measurement": "Mean % Visual Injury", "setting": "[4]; BRSNS, trial 5, 15DAA1, 150 g ae/ha", "value": "0.0% and 0.5%"}, {"measurement": "Mean % Visual Injury", "setting": "[4]; BRSNS, trial 5, 36DAA1, 150 g ae/ha", "value": 0.5, "unit": "%"}, {"measurement": "Mean % Visual Injury", "setting": "[4]; BRSNS, trial 5, 79DAA1, 150 g ae/ha", "value": 0.0, "unit": "%"}, {"measurement": "Mean % Visual Injury", "setting": "[4]; BRSNS, trial 6, 6DAA1, 150 g ae/ha", "value": 0.0, "unit": "%"}, {"measurement": "Mean % Visual Injury", "setting": "[4]; BRSNS, trial 6, 23DAA1, 150 g ae/ha", "value": 0.0, "unit": "%"}, {"measurement": "Mean % Visual Injury", "setting": "[4]; BRSNS, trial 6, 33DAA1, 150 g ae/ha", "value": 2.0, "unit": "%"}, {"measurement": "Mean % Visual Injury", "setting": "[4]; BRSNS, trial 6, 59DAA1, 150 g ae/ha", "value": 3.5, "unit": "%"}, {"measurement": "Mean % Visual Injury", "setting": "[4]; BRSNS, trial 7, 17DAA1, 100 g ae/ha", "value": 0.0, "unit": "%"}, {"measurement": "Mean % Visual Injury", "setting": "[4]; BRSNS, trial 7, 17DAA1, 150 g ae/ha", "value": 0.0, "unit": "%"}, {"measurement": "Mean % Visual Injury", "setting": "[4]; BRSNS, trial 7, 17DAA1, 200 g ae/ha", "value": 0.0, "unit": "%"}, {"measurement": "Mean % Visual Injury", "setting": "[4]; BRSNS, trial 7, 27DAA1, 150 g ae/ha", "value": 0.0, "unit": "%"}, {"measurement": "Mean % Visual Injury", "setting": "[4]; BRSNS, trial 7, 27DAA1, 200 g ae/ha", "value": 3.0, "unit": "%"}, {"measurement": "Mean % Visual Injury", "setting": "[4]; BRSNS, trial 8, 7DAA1, 150 g ae/ha", "value": 1.5, "unit": "%"}, {"measurement": "Mean % Visual Injury", "setting": "[4]; BRSNS, trial 8, 57DAA1, 150 g ae/ha", "value": 2.3, "unit": "%"}, {"measurement": "Mean % Visual Injury", "setting": "[4]; BRSNS, trial 9, 27DAA1, 150 g ae/ha", "value": 1.0, "unit": "%"}, {"measurement": "Mean % Visual Injury", "setting": "[4]; BRSNS, trial 9, 60DAA1, 150 g ae/ha", "value": 0.0, "unit": "%"}, {"measurement": "Mean % Visual Injury", "setting": "[4]; Table 15, 7DAAA, halauxifen-methyl 5, clopyralid-olamine 150, quinclorac 101 g ae/ha, alone or mixed", "value": 0.0, "unit": "%"}, {"measurement": "Mean % Visual Injury", "setting": "[4]; Table 15, 15DAAA, halauxifen-methyl 5, clopyralid-olamine 150, quinclorac 101 g ae/ha, alone or mixed", "value": 1.5, "unit": "%"}, {"measurement": "Mean % Visual Injury", "setting": "[4]; Table 15, 27DAAA, halauxifen-methyl 5, clopyralid-olamine 150, quinclorac 101 g ae/ha, alone or mixed", "value": 1.0, "unit": "%"}, {"measurement": "Mean % Visual Injury", "setting": "[4]; Table 15, 57DAAA, halauxifen-methyl 5, clopyralid-olamine 150, quinclorac 101 g ae/ha, alone or mixed", "value": 2.0, "unit": "%"}, {"measurement": "Mean % Visual Injury", "setting": "[4]; Table 17, 7DAAA, halauxifen-methyl 5, clopyralid-olamine 150 g ae/ha alone, or both mixed with isoxadifen-ethyl 5 g ae/ha", "value": 0.0, "unit": "%"}, {"measurement": "Mean % Visual Injury", "setting": "[4]; Table 17, 15DAAA, halauxifen-methyl 5, clopyralid-olamine 150 g ae/ha alone, or both mixed with isoxadifen-ethyl 5 g ae/ha", "value": 1.5, "unit": "%"}, {"measurement": "Mean % Visual Injury", "setting": "[4]; Table 17, 27DAAA, halauxifen-methyl 5, clopyralid-olamine 150 g ae/ha alone, or both mixed with isoxadifen-ethyl 5 g ae/ha", "value": 1.0, "unit": "%"}, {"measurement": "Mean % Visual Injury", "setting": "[4]; Table 17, 57DAAA, halauxifen-methyl 5, clopyralid-olamine 150 g ae/ha alone, or both mixed with isoxadifen-ethyl 5 g ae/ha", "value": 2.0, "unit": "%"}, {"measurement": "Mean % Visual Injury", "setting": "[4]; Table 18, 8DAAA, halauxifen-methyl 5, clopyralid-olamine 150 g ae/ha, alone or mixed", "value": 0.5, "unit": "%"}, {"measurement": "Mean % Visual Injury", "setting": "[4]; Table 18, 14DAAA, halauxifen-methyl 5, clopyralid-olamine 150 g ae/ha, alone or mixed", "value": 0.5, "unit": "%"}, {"measurement": "Mean % Visual Injury", "setting": "[4]; Table 18, 40DAAA, halauxifen-methyl 5, clopyralid-olamine 150 g ae/ha, alone or mixed", "value": 0.0, "unit": "%"}, {"measurement": "Mean % Visual Injury", "setting": "[4]; Table 18, 81DAAA, halauxifen-methyl 5, clopyralid-olamine 150 g ae/ha, alone or mixed", "value": 0.0, "unit": "%"}, {"measurement": "Mean % Visual Injury", "setting": "[4]; Table 19, 8DAAA, halauxifen-methyl 5, clopyralid-olamine 150 g ae/ha alone, or both mixed with isoxadifen-ethyl 20 g ae/ha", "value": 0.5, "unit": "%"}, {"measurement": "Mean % Visual Injury", "setting": "[4]; Table 19, 14DAAA, halauxifen-methyl 5, clopyralid-olamine 150 g ae/ha alone, or both mixed with isoxadifen-ethyl 20 g ae/ha", "value": 0.5, "unit": "%"}, {"measurement": "Mean % Visual Injury", "setting": "[4]; Table 19, 40DAAA, halauxifen-methyl 5, clopyralid-olamine 150 g ae/ha alone, or both mixed with isoxadifen-ethyl 20 g ae/ha", "value": 0.0, "unit": "%"}, {"measurement": "Mean % Visual Injury", "setting": "[4]; Table 19, 81DAAA, halauxifen-methyl 5, clopyralid-olamine 150 g ae/ha alone, or both mixed with isoxadifen-ethyl 20 g ae/ha", "value": 0.0, "unit": "%"}, {"measurement": "Mean % Visual Injury", "setting": "[4]; Table 22, 8DAAA, halauxifen-methyl 5, clopyralid-olamine 150, quinclorac 101 g ae/ha, alone or mixed", "value": 0.5, "unit": "%"}]}]}
